Active and inactive are the calls of the source. No cut-off for these calls is given here.
How the values were obtained:
NCI-H460 [1] = assay: Cytotoxicity against human NCI-H460 cells assessed as cell viability incubated for 48 hrs by MTT assay; format: functional, cell-based; settings: NCI-H460, 48 h
[2] = Cytotoxicity against human BEAS-2B cells assessed as cell viability incubated for 48 hrs by MTT assay; format: toxicity, cell-based
A549 [3] = assay: Cytotoxicity against human A549 cells assessed as cell viability incubated for 48 hrs by MTT assay; format: functional, cell-based; settings: A549, 48 h
NCI-H1299 = assay: Cytotoxicity against human NCI-H1299 cells assessed as cell viability incubated for 48 hrs by MTT assay; format: functional, cell-based; settings: NCI-H1299, 48 h
[4] = target: T1, Thioredoxin reductase 1, cytoplasmic (Homo sapiens) (UniProt Q16881); assay: Binding affinity to TrxR1 in human A549 cells assessed as thermal stabilization by measuring reduction in thermal denaturation at 200 uM incubated for 90 mins by CETSA analysis; format: cell-based
T1 sequence (whole entry): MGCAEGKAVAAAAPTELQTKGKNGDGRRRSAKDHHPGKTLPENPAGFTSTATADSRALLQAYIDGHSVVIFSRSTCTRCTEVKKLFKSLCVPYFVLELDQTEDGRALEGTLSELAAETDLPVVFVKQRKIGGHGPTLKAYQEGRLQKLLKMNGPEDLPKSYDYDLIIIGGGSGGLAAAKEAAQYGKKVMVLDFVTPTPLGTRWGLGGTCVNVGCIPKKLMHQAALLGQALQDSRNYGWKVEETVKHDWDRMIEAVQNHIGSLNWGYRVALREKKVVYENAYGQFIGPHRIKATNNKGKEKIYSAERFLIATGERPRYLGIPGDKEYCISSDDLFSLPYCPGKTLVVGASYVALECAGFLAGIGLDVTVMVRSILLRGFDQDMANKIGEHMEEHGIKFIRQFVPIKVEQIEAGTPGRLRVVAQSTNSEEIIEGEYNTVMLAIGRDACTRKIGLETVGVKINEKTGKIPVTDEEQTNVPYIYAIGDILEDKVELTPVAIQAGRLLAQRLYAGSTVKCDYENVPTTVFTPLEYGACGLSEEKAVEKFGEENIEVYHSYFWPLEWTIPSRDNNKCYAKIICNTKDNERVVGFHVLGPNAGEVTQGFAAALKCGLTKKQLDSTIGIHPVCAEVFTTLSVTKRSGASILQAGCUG

[5] = target: T1, Thioredoxin reductase 1, cytoplasmic (Homo sapiens); assay: Inhibition of TrxR1 (unknown origin) using DTNB as substrate preincubated for 1.5 hrs by microplate reader analysis
[6] = target: T1, Thioredoxin reductase 1, cytoplasmic (Homo sapiens); assay: Binding affinity to TrxR1 (unknown origin) at Sec498 residue by pull-down analysis
[7] = target: T2, Thioredoxin reductase 1, cytoplasmic (Homo sapiens, UniProt Q16881); assay: Binding affinity to TrxR1 (unknown origin) assessed as dissociation constant by SPR analysis
T2 sequence (Q16881 whole entry): T1 sequence (whole entry)

[8] = target: T1, Thioredoxin reductase 1, cytoplasmic (Homo sapiens); assay: Binding affinity to TrxR1 (unknown origin) at Cys475 residue
NCI-H460 [9] = assay: Induction of ROS generation in human NCI-H460 cells by DCFH-DA probe based flow cytometry analysis; format: functional, cell-based
A549 [10] = assay: Induction of ROS generation in human A549 cells by DCFH-DA probe based flow cytometry analysis; format: functional, cell-based

Row | Structure (SMILES) | IC50 (NCI-H460 [1]) | IC50 (A549 [3]) | IC50 (NCI-H1299) | also measured
1 | C/C1=C\[C@@H](OC(=O)C2CC2)[C@H]2[C@H](CC3=C[C@H](C1)OC3=O)OC(=O)[C@@H]2CSc1ccc(C(F)(F)F)cc1 | > 25 µM | 3.86 µM |  | IC50 at 48 h [2]: > 25 µM
2 | C/C1=C\[C@@H](OC(=O)OCc2ccc(F)cc2)[C@H]2[C@H](CC3=C[C@H](C1)OC3=O)OC(=O)[C@@H]2CSC(=S)N(C)C |  | 0.47 µM | 2.93 µM | 
3 | C/C1=C\[C@@H](OC(=O)OC2CC2)[C@H]2[C@H](CC3=C[C@H](C1)OC3=O)OC(=O)[C@@H]2CSc1ccc(F)cc1 |  | 3.91 µM | 3.04 µM | 
4 | C=C1C(=O)O[C@H]2CC3=C[C@H](C/C(C)=C/[C@@H](OC(=O)NCCC)[C@H]12)OC3=O |  |  |  | Activity [4]: Active; inhibition [5]: Active; Activity [6]: Active; Kd [7]: 7.89 µM; Activity [8]: Active
5 | C=C1C(=O)O[C@H]2CC3=C[C@H](C/C(C)=C/[C@@H](O)[C@H]12)OC3=O |  |  |  | Kd [7]: 42.7 µM
6 | CCCCCSC(=O)O[C@@H]1/C=C(\C)C[C@H]2C=C(C[C@@H]3OC(=O)[C@H](CSC(=S)N(C)C)[C@H]31)C(=O)O2 |  | 1.06 µM | 2.64 µM | 
7 | C/C1=C\[C@@H](OC(=O)OCc2cccnc2)[C@H]2[C@H](CC3=C[C@H](C1)OC3=O)OC(=O)[C@@H]2CSc1ccc(F)cc1 |  | 1.56 µM | 11.5 µM | 
8 | C/C1=C\[C@@H](OC(=O)C2CC2)[C@H]2[C@H](CC3=C[C@H](C1)OC3=O)OC(=O)[C@@H]2CSC(=S)N(C)C | 7.75 µM | 0.57 µM | 2.18 µM | 
9 | C/C1=C\[C@@H](OC(=O)C2CC2)[C@H]2[C@H](CC3=C[C@H](C1)OC3=O)OC(=O)[C@@H]2CSc1ccc(F)cc1 | > 25 µM | 4.41 µM |  | IC50 at 48 h [2]: > 25 µM; Activity (NCI-H460 [9]): Active; Activity (A549 [10]): Active
10 | C/C1=C\[C@@H](OC(=O)NCc2ccc(F)cc2)[C@H]2[C@H](CC3=C[C@H](C1)OC3=O)OC(=O)[C@@H]2CSc1ccc(F)cc1 |  | 5.05 µM | 5.37 µM | 
11 | C/C1=C\[C@@H](OC(=O)C2CC2)[C@H]2[C@H](CC3=C[C@H](C1)OC3=O)OC(=O)[C@@H]2CSc1ccc(Br)cc1 | > 25 µM | 4.6 µM |  | IC50 at 48 h [2]: > 25 µM
12 | C/C1=C\[C@@H](OC(=O)SCC(C)C)[C@H]2[C@H](CC3=C[C@H](C1)OC3=O)OC(=O)[C@@H]2CSc1ccc(F)cc1 |  | 2.57 µM | 5.37 µM | 
13 | C/C1=C\[C@@H](O)[C@H]2[C@H](CC3=C[C@H](C1)OC3=O)OC(=O)[C@@H]2CSc1ccc(Br)cc1 | > 25 µM | 15.2 µM |  | 

Reference: ChEMBL document CHEMBL6121052, “Design of ROS-Triggered Sesquiterpene Lactone SC Prodrugs as TrxR1 Covalent Inhibitors for the Treatment of Non-Small Cell Lung Cancer” (J Med Chem, 2025)
